Experiment [1] concerns human prostate cancer PC3 cells. Kind of experiment: EB1 cellular assay (Eb1 Comet assay, microtubule disruption). It counts as cell-based. The settings on record: PC-3, lowest active concentration: Eb1 foci absent in at least 50% of treated PC3 cells, 1 hour, read-out: Eb1 LAC. The protocol: The Eb1 Comet assay relies on the detection of the Eb1 protein at the plus end of polymerizing microtubules (Mimori-Kiyosue, 2000) using indirect immunofluorescence. Disruption of microtubule dynamics through de-polymerization or stabilization results in a de-localization of Eb1 from the growing microtubule ends and this is visualized by the disappearance of Eb1 containing cytoplasmic foci.
Briefly, human prostate cancer PC3 cells obtained from the American Type Culture Collection were grown in 96-well plates (Greiner, cat. no. 655090) in HAM's F12 medium as recommended by the provider (ATCC). The cells were treated for 1 hour at 37° C. with compounds dissolved in DMSO (0.6% final DMSO concentration). The culture medium was then removed by aspiration and the cells were fixed by adding cold methanol (−20° C.). After a 15 minutes incubation at −20° C., the cells were washed twice with DPBS (Gibco) containing 0.5% Triton X-100. Mouse Eb1 antibody (BD Transduction Laboratories, cat. no. 610534) was added to the cells (1/250 dilution in DPBS containing 1% BSA) and incubated overnight at room temperature. The antibody was subsequently removed and the cells washed twice with DPBS, 0.5% Triton X-100. Secondary goat anti-mouse antibody conjugated to Alexa 488 fluorescent dye (Molecular Probes) was added at a 1/500 dilution in DPBS, 1% BSA and incubated for 1 hour at 37° C. The cells were washed twice with DPBS, 0.5% Triton X-100 and then DPBS containing 0.5% Triton X-100 and 1/5000 Hoechst 33342 (Molecular Probes) was added. Microscopy based Eb1 foci visualization was carried out using an IN Cell Analyser 1000 (Amersham Biosciences) using a 20× objective. Compound dependent microtubule disruption was visually determined by the disappearance in Eb1 foci. The lowest active concentration (LAC) was determined as the concentration where Eb1 foci were absent in at least 50% of the treated cells. Herein the effects of test compounds are expressed as pLAC (the negative log value of the LAC-value)

Experiment [2] deals with T1, VEGFR2 (Homo sapiens, UniProt P35968).
T1 construct: purchased Upstate
In words: VEGFR2 in vitro kinase inhibitory activity assay. In kind it is biochemical. The settings on record: read-out: VEGFR2 IC50(μM) or % I. The protocol:
(§1) FGFR3, VEGFR2 and PDGFR in vitro Kinase Inhibitory Activity Assays
(§2) Enzymes (from Upstate), prepared at 2× final concentration, were incubated with test compounds, biotinylated Flt3 substrate (biotin-VASSDNEYFYVDF) (Cell Signalling Technology Inc.) and ATP in the appropriate assay buffer (Table 1). The reaction was allowed to proceed for 3 hours (FGFR3), 1 hour (VEGFR2, PDGFR-beta) at room temperature on a plate shaker at 700 rpm before being stopped with 35 mM EDTA, pH 8 (FGFR3, VEGFR2) or 55 mM EDTA, pH 8 (PDGFR-beta). 5× detection mix/50 mM HEPES pH 7.5, 0.1% BSA, 11.34 nM Eu-anti-pY (PY20) (PerkinElmer) 74 nM SA-XL665 (Cisbio) for FGFR3, 50 mM HEPES, pH 7.5, 0.1% BSA, 11.34 nM Eu-anti-pY (PY20), 187.5 nM SA-XL665 for VEGFR2 and 50 mM HEPES, pH 7.5, 0.1% BSA, 11.34 nM Eu-anti-pY (PT66) (PerkinElmer), 375 nM SA-XL665 (Cisbio) for PDGFR-beta) was then added to each well and the plate sealed and incubated at room temperature for one hour on a plate shaker at 700 rpm. The plate was then read on a Packard Fusion plate reader or a BMG Pherastar both in TRF mode.
Kinase Assay buffers were:
B: 50 mM HEPES pH 7.5, 6 mM MnCl2, 1 mM DTT, 0.01% TritonX-100, 0.1 mM Sodium orthovanadate

The target in experiment [3] is T2, FGFR3 (Homo sapiens, UniProt P22607).
T2 construct: purchased Upstate
Kind of experiment: FGFR3 in vitro kinase inhibitory activity assay. In kind it is biochemical. The settings on record: read-out: FGFR3 IC50(μM) or % I. The protocol: as §1, §2

Experiment [4] deals with T3, Ba/F3-Flt3 cells (Homo sapiens, UniProt P36888, cells depend on it, form not given).
T3 construct: Ba/F3-flt3 − IL3 pIC50; other: without IL3
T3 sequence (P36888 1-993): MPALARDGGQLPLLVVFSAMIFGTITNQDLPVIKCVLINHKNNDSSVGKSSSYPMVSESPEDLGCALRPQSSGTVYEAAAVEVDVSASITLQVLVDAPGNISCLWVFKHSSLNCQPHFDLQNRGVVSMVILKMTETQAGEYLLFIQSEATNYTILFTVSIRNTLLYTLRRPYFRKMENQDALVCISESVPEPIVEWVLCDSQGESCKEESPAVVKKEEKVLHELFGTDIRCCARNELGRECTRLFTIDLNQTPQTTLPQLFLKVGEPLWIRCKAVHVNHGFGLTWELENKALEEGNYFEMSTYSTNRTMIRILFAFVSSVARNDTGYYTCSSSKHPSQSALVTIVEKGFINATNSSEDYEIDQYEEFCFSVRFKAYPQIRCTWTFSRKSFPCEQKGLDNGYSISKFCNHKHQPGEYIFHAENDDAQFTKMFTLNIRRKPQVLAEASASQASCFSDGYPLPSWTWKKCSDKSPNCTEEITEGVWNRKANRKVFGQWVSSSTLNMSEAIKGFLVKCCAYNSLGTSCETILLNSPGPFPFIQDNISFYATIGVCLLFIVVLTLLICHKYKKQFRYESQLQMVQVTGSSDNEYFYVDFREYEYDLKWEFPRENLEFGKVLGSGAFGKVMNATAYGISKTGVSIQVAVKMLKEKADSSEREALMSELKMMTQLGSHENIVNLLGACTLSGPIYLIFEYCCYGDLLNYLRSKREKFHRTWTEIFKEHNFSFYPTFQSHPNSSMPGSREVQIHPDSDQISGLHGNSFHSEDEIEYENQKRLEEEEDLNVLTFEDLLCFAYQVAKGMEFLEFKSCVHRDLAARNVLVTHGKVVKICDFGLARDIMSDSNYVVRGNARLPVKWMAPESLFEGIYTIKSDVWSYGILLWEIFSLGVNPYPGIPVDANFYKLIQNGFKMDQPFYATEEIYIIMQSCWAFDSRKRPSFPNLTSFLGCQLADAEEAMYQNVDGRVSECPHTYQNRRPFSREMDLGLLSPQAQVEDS
In words: Ba/F3-Flt3 assay (Alamar Blue). In kind it is cell-based, murine. The settings on record: without IL3. The source says: (§3) Ba/F3, a murine interleukin-3 dependent pro-B cell line is increasingly popular as a model system for assessing both the potency and downstream signaling of kinase oncogenes, and the ability of small-molecule kinase inhibitors to block kinase activity. Facilitated by their growth properties. Ba/F3 cells have recently been adapted to high throughput assay formats for compound profiling. Further, several published approaches show promise in predicting resistance to small-molecule kinase inhibitors elicited by point mutations interfering with inhibitor binding (Ba/F3 cells and their use in kinase drug discovery; Markus Warmuth, Sungjoon Kim, Xiang-ju Gu, Gang Xia and Francisco Adria'n; Curr Opin Oncol 19:55-60).
(§4) Ba/F3-Flt3 cells (cultured in phenol red free RPMI-1640, 10% A FCS and 50 μg/ml Gentamycin at 37° C. and 5% 002) were plated at a density of 10000 cells in a total volume of 180 μl medium in a black TC-treated sterile 96-well plate (Corning). After 24 hours, drugs in different dilutions were added to a final volume of 200 μl and at a final DMSO concentration of 0.2% prior to incubation at 37° C., and 5% CO2.
(§5) After 24 h, to each well 40 μl Alamar Blue solution (Aldrich) was added and the cells were further incubated for 4 hours at 37° C. Fluorescence (ex. 544, em. 590 nm) was measured using a fluorescence reader (Labsystems) and IC50's were calculated.
(§6) In the condition containing IL3, 10 ng/ml of murine IL3 (PeproTech) was added during compound incubation.
In general terms: The colour change of resazurin is a common sign of viable cells or microbes.

Experiment [5] concerns Ba/F3-Flt3 cells. Kind of experiment: Ba/F3-Flt3 assay (Alamar Blue). It counts as cell-based, murine. As to conditions: Mus musculus, 24 h; with 10 ng/ml murine IL3; read-out: Ba/F3-flt3 + IL3 pIC50 (converted).
Text: as §3, §4, §5, §6

In experiment [6] the target is T4, Ba/F3-TEL-FGFR3 cells (Homo sapiens, UniProt P22607).
T4 construct: fused on or other part: TEL (ETV6) N-terminal oligomerising part fused to the FGFR3 kinase part; P41212 (Transcription factor ETV6)
Kind of experiment: Ba/F3-TEL-FGFR3 cell proliferation assay (Alamar Blue). It counts as cell-based, murine. The settings on record: 72 hours; read-out: BaF3-TEL-FGFR3 prolif. The method, then: (§7) Ba/F3-TEL-FGFR3 & Ba/F3 (WT) Cell Proliferation Assays
(§8) Stably transfected Ba/F3-TEL-FGFR3 cells were plated out into black 96-well tissue culture plates with clear bottoms in RPMI medium containing 10% FBS and 0.25 mg/ml G418 at a density of 5×10^3 cells/well (200 μl per well). The parental wild-type Ba/F3 cells (DSMZ no.: ACC 300) were plated out into black 96-well tissue culture plates with clear bottoms in RPMI medium containing 10% FBS and 2 ng/ml mouse IL-3 (R&D Systems) at a density of 2.5×10^3 cells/well (200 μl per well). Plates were placed in an incubator overnight before adding the compounds the following day. Dilutions of compounds were made in DMSO starting at 10 mM and were diluted into the wells to give a final DMSO concentration of 0.1% in assay. Compounds were left on the cells for 72 hours before the plates were removed from the incubator and 20 μl of Alamar Blue™ (Biosource) was added to each well. Plates were placed in the incubator for 4-6 hours before reading plates at 535 nm (excitation)/590 nm (emission) on a Fusion plate reader (Packard). Where inhibition is high an IC50 can be determined.

Experiment [7] concerns parental wild-type Ba/F3 cells. Kind of experiment: Ba/F3 (WT) cell proliferation assay (Alamar Blue). It counts as cell-based, murine. The settings on record: Mus musculus, BaF3, 72 h; % at 10.0 μM; read-out: BaF3 WT prolif. The method, then: as §7, §8

Bounds are passed on as bounds.

T2 sequence (P22607 23-806): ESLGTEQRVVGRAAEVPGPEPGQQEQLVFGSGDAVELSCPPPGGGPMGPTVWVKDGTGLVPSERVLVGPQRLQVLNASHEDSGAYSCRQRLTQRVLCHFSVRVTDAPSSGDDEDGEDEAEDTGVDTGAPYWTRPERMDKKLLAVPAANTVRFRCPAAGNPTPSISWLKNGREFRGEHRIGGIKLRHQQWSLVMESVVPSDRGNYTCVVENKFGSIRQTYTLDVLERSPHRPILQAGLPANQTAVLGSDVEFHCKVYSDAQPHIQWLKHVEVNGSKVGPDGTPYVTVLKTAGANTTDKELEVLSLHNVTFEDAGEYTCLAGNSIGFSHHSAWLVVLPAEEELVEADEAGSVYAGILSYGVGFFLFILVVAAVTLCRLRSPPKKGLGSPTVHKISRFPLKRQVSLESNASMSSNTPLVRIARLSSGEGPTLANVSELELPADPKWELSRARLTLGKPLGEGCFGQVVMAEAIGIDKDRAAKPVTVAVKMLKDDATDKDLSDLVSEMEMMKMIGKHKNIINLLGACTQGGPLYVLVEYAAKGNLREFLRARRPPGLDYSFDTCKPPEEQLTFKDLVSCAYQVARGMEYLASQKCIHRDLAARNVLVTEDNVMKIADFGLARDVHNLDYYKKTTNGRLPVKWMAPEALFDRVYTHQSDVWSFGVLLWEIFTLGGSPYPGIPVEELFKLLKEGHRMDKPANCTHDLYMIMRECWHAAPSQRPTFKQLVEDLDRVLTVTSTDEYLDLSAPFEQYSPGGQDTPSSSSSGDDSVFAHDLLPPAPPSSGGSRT
T1 sequence (P35968 20-1356): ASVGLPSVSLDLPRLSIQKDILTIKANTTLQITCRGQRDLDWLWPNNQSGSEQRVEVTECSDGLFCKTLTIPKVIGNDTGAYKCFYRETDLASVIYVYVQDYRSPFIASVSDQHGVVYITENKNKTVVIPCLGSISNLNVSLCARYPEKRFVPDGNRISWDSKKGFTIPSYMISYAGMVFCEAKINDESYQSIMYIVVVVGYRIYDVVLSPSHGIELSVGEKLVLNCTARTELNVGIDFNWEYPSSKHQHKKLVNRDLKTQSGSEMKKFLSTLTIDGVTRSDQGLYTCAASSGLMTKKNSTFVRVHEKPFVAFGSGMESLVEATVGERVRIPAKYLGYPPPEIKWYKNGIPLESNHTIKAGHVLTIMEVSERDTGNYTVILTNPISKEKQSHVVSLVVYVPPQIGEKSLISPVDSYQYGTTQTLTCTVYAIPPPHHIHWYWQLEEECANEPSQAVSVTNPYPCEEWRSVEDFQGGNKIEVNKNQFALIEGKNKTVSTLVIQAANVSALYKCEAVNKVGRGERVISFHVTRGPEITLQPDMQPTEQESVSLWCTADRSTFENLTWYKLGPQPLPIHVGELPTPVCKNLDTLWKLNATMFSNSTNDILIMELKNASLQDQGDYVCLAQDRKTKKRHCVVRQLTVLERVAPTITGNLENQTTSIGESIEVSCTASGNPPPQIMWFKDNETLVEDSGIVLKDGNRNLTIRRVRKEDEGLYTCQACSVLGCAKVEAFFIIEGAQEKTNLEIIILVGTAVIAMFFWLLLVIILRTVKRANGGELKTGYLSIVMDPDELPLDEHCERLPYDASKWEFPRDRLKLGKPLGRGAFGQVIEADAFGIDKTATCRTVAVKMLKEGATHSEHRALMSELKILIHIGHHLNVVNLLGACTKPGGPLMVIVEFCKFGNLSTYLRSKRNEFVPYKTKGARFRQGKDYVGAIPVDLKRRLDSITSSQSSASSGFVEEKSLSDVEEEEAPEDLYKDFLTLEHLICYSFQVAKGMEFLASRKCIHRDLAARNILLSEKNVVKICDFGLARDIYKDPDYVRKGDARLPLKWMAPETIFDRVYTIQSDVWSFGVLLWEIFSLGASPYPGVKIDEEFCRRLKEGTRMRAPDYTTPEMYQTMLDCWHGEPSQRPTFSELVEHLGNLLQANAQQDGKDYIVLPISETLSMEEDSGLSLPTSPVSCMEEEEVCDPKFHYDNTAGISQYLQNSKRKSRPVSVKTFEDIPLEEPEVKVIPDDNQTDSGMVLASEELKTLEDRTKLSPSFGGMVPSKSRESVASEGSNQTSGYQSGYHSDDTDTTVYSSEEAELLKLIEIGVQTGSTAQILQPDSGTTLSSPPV
T4 sequence (P22607 whole entry, change not shown, the tested form may be a part): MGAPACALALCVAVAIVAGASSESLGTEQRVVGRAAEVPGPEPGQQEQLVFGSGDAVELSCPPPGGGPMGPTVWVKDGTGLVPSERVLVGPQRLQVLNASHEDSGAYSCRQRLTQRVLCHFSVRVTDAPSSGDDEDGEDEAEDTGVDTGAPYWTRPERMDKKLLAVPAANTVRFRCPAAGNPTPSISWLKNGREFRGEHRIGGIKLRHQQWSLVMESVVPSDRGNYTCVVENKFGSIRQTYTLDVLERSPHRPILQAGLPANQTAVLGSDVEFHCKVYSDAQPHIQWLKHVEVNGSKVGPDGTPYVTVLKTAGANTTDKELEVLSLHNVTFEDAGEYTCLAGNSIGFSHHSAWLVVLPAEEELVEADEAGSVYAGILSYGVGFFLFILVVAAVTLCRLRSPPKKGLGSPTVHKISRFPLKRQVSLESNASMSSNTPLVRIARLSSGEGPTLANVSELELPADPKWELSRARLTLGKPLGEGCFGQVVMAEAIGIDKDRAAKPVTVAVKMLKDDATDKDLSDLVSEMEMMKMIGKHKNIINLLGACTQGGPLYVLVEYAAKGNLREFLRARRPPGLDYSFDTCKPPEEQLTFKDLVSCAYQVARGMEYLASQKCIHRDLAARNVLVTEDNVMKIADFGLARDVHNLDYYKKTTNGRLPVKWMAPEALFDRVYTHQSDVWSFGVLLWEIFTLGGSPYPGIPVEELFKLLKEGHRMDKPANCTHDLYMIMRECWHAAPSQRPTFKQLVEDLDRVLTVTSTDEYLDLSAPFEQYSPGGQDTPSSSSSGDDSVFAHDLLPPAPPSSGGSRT

On to `Cc1nnc(-c2ccn3c(-c4cc(NC(=O)NCC(F)(F)F)cc(NC(C)C)c4)cnc3c2)o1` [Compound F-30], for which the minimal effective concentration in experiment [1] turned out to be 10 µM. For the same molecule, the IC50 was 5.8 µM in experiment [2], 0.17 µM in experiment [3] and more than 10000 nM in experiment [5]. The “Ba/F3-flt3 − IL3 pIC50” value in experiment [4] is recorded as less than 5.
For `CC(C)Oc1cc(NC(=O)NCC(F)(F)F)cc(-c2cnc3cc(-c4nnco4)ccn23)c1` [Compound F-22, 1-[3-Isopropoxy-5-(7-[1,3,4]oxadiazol-2-yl-imidazo[1,2-a]pyridin-3-yl)-phenyl]-3-(2,2,2-trifluoro-ethyl)-urea], the IC50 in experiment [2] is 1.1 µM; in experiment [3] it was 0.041 µM. Also, the GI50 in experiment [6] came to 1300 nM. Also, the inhibition at 10 µM in experiment [7] came to 19%.
Take `Cc1nnc(-c2ccn3c(-c4cc(NC(=O)NCC(C)C)cc(OC(C)C)c4)cnc3c2)o1` [Compound F-14, 1-Isobutyl-3-{3-isopropoxy-5-[7-(5-methyl-[1,3,4]oxadiazol-2-yl)-imidazo[1,2-a]pyridin-3-yl]-phenyl}-urea]: the figures for the IC50 in experiment [2] and in experiment [3] were 2.6 µM and 0.2 µM, respectively.
With `Cc1nnc(-c2ccn3c(-c4cc(CN(C)C)cc(NC(=O)NCC(F)(F)F)c4)cnc3c2)o1` [Compound F-24, 1-{3-Dimethylaminomethyl-5-[7-(5-methyl-[1,3,4]oxadiazol-2-yl)-imidazo[1,2-a]pyridin-3-yl]-phenyl}-3-(2,2,2-trifluoroethyl)-urea], the minimal effective concentration in experiment [1] is more than 10 µM. In addition, the IC50 is 2.8 µM in experiment [2] and more than 10000 nM in experiment [5]. Moreover, in experiment [4], the “Ba/F3-flt3 − IL3 pIC50” value was less than 5.
Consider `O=C(NCC(F)(F)F)Nc1cc(OC2CCC2)cc(-c2cnc3cc(-c4ccnc(C(F)(F)F)n4)ccn23)c1` [Compound F-12, 1-{3-Cyclobutoxy-5-[7-(2-trifluoromethyl-pyrimidin-4-yl)-imidazo[1,2-a]pyridin-3-yl]-phenyl}-3-(2,2,2-trifluoro-ethyl)-urea], for which the minimal effective concentration in experiment [1] is more than 10 µM. Moreover, the figures for the IC50 in experiment [2] and in experiment [5] were 2.2 µM and more than 10000 nM, respectively. The inhibition at 0.3 µM in experiment [3] (3 h, % I at 0.3 μM) was found to be 60%. Also, the “Ba/F3-flt3 − IL3 pIC50” value in experiment [4] is on record as less than 5.
Consider `CNCc1cc(NC(=O)NCC(F)(F)F)cc(-c2cnc3cc(-c4nnc(C)o4)ccn23)c1` [Compound F-25, 1-{3-Methylaminomethyl-5-[7-(5-methyl-[1,3,4]oxadiazol-2-yl)-imidazo[1,2-a]pyridin-3-yl]-phenyl}-3-(2,2,2-trifluoroethyl)-urea], for which, in experiment [1], the minimal effective concentration is more than 10 µM. The IC50 in experiment [2] was 1.7 µM; in experiment [3] it was 0.46 µM; in experiment [5], more than 10000 nM. In experiment [4], the “Ba/F3-flt3 − IL3 pIC50” value was less than 5.
As to `Cc1nnc(-c2ccn3c(-c4cc(NC(=O)NC(O)C(F)(F)F)cc(OC(C)C)c4)cnc3c2)o1` (centres unmarked) [Compound F-32, 1-{3-Isopropoxy-5-[7-(5-methyl-[1,3,4]oxadiazol-2-yl)-imidazo[1,2-a]pyridin-3-yl]-phenyl}-3-(2,2,2-trifluoro-1-hydroxyethyl)-urea], the minimal effective concentration in experiment [1] was more than 10 µM. The IC50 in experiment [2] is 1.2 µM; in experiment [5], more than 10000 nM. In addition, the “Ba/F3-flt3 − IL3 pIC50” value in experiment [4] is on record as less than 5.

The values above are taken from patent US8722687B2, “Imidazo [1,2-A]pyridine derivatives as FGFR kinase inhibitors for use in therapy” (Astex Therapeutics Ltd, priority 2009, dated 2014).
